Data taken from ChEMBL document CHEMBL1201862, “PubChem BioAssay data set” (2004).
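Five compound concentrations were applied to cells in 96-well plates for 48 hours; endpoints were derived by simple linear interpolation of the resulting dose-response curve. GI50 is the concentration that inhibits growth by half.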 Active and inactive are the calls of the source. Rule as the data show it: active = GI50 up to about 1.1 µM and inactive = higher.

Columns and labels:
Experiment in all cases: NCI tumour cell line growth inhibition, 48 h
HCT-15 = test system: HCT-15
Hs-578T = test system: Hs-578T
KM12 = test system: KM12
LOX IMVI = test system: LOX IMVI
MDA-MB-435 = test system: MDA-MB-435
MDA-N = test system: MDA-N
MOLT-4 = test system: MOLT-4
Malme-3M = test system: Malme-3M
NCI-H226 = test system: NCI-H226
NCI-H23 = test system: NCI-H23
NCI-H460 = test system: NCI-H460
OVCAR-3 = test system: OVCAR-3
OVCAR-4 = test system: OVCAR-4
OVCAR-8 = test system: OVCAR-8
PC-3 = test system: PC-3
RXF 393 = test system: RXF 393
SK-OV-3 = test system: SK-OV-3
SNB-19 = test system: SNB-19
U-251 = test system: U-251
UACC-257 = test system: UACC-257

Structure (SMILES)	GI50 (HCT-15) [µM]	GI50 (Hs-578T)	GI50 (KM12)	GI50 (LOX IMVI)	GI50 (MDA-MB-435)	GI50 (MDA-N)	GI50 (MOLT-4)	GI50 (Malme-3M)	GI50 (NCI-H226)	GI50 (NCI-H23)	GI50 (NCI-H460)	GI50 (OVCAR-3)	GI50 (OVCAR-4)	GI50 (OVCAR-8)	GI50 (PC-3)	GI50 (RXF 393)	GI50 (SK-OV-3)	GI50 (SNB-19)	GI50 (U-251)	GI50 (UACC-257)
N#CCN(Cc1ccccc1)[C@@H]1CCC[C@]1(O)C#Cc1ccc2c(c1)OCO2	21.8	14.1 µM (inactive)	15.2 µM (inactive)	15.9 µM (inactive)	18.5 µM (inactive)	17.5 µM (inactive)	16.4 µM (inactive)	18.2 µM (inactive)	18.6 µM (inactive)	16.4 µM (inactive)	16.1 µM (inactive)	14.9 µM (inactive)	15 µM (inactive)	16.7 µM (inactive)	19.7 µM (inactive)	15.2 µM (inactive)	25.8 µM (inactive)	20.7 µM (inactive)	17.9 µM (inactive)	18.8 µM (inactive)
CC1=C2CC(C)(C)/C=C\C(=O)/C(C)=C\C3=C[C@H](C)C[C@]3(O2)C1=O	0.627	2.26 µM (inactive)	2.21 µM (inactive)	0.741 µM (active)	0.706 µM (active)	0.914 µM (active)	0.195 µM (active)	0.897 µM (active)	3.46 µM (inactive)	1.08 µM (active)	4.71 µM (inactive)	0.376 µM (active)	1.52 µM (inactive)	0.9 µM (active)	2.02 µM (inactive)	0.597 µM (active)	9.51 µM (inactive)	17.2 µM (inactive)	3.86 µM (inactive)	1.14 µM (inactive)
O=c1[nH]nc(Cc2ccccc2)n1/N=C/c1ccccc1Cl	> 100	43.4 µM (inactive)	> 100 µM (inactive)	> 100 µM (inactive)	> 100 µM (inactive)	> 100 µM (inactive)	> 100 µM (inactive)	> 100 µM (inactive)	> 100 µM (inactive)	> 100 µM (inactive)	> 100 µM (inactive)	> 100 µM (inactive)	> 100 µM (inactive)	> 100 µM (inactive)	> 100 µM (inactive)	3.56 µM (inactive)	> 100 µM (inactive)	> 100 µM (inactive)	53.1 µM (inactive)	> 100 µM (inactive)
N=C(N)NS(=O)(=O)c1ccc(NC(=O)c2ccc3nc4ccccc4c(N)c3c2)cc1	> 100	> 100 µM (inactive)	74.6 µM (inactive)	> 100 µM (inactive)	> 100 µM (inactive)	> 100 µM (inactive)	> 100 µM (inactive)	> 100 µM (inactive)	> 100 µM (inactive)	> 100 µM (inactive)	> 100 µM (inactive)	> 100 µM (inactive)	> 100 µM (inactive)	> 100 µM (inactive)	> 100 µM (inactive)	> 100 µM (inactive)	> 100 µM (inactive)	> 100 µM (inactive)	> 100 µM (inactive)	> 100 µM (inactive)
CN(C)CCCn1c(Cn2nc3ccccc3n2)nc2cc(C(F)(F)F)ccc21	30.1	36.2 µM (inactive)	22.8 µM (inactive)	16.9 µM (inactive)	16.5 µM (inactive)	18.8 µM (inactive)	19.1 µM (inactive)	11.6 µM (inactive)	56 µM (inactive)	34 µM (inactive)	26.4 µM (inactive)	36.7 µM (inactive)	33.4 µM (inactive)	30.4 µM (inactive)	31.6 µM (inactive)	22.1 µM (inactive)	16.9 µM (inactive)	50.7 µM (inactive)	26.4 µM (inactive)	16.8 µM (inactive)
CC(=O)NC1C(OCc2ccccc2)OC(CO)C(O)C1OCC(=O)N[C@@H](C)C(=O)N[C@H](CCC(=O)NCCCCNc1c2ccccc2nc2cccc([N+](=O)[O-])c12)C(N)=O (stereo not given in full)	1.97	3.1 µM (inactive)	1.83 µM (inactive)	2.39 µM (inactive)	1.62 µM (inactive)	1.64 µM (inactive)	1.6 µM (inactive)	1.34 µM (inactive)	1.84 µM (inactive)	0.984 µM (active)	0.48 µM (active)	3.5 µM (inactive)	0.957 µM (active)	1.55 µM (inactive)	1.24 µM (inactive)	1.53 µM (inactive)	7.59 µM (inactive)	4.53 µM (inactive)	1.87 µM (inactive)	2.13 µM (inactive)
C[C@@H]1[C@@H](c2ccccc2)O[B-](c2ccccc2)(c2ccccc2)N1C	40.2	33.4 µM (inactive)	52.1 µM (inactive)	61.9 µM (inactive)	35.4 µM (inactive)	52 µM (inactive)	43.7 µM (inactive)	29.5 µM (inactive)	36.5 µM (inactive)	35.6 µM (inactive)	45.2 µM (inactive)	35.9 µM (inactive)	72.1 µM (inactive)	72.3 µM (inactive)	17.5 µM (inactive)	37.5 µM (inactive)	55.3 µM (inactive)	> 100 µM (inactive)	> 100 µM (inactive)	50.6 µM (inactive)
